Experimental findings from paper PMC9147192, “Small Molecule Arranged Thermal Proximity Coaggregation (smarTPCA)—A Novel Approach to Characterize Protein–Protein Interactions in Living Cells by Similar Isothermal Dose–Responses” (International Journal of Molecular Sciences, 2022) are described below.

pEC50: −log10 of the molar value.

This assay deals with T1, PFAS (Homo sapiens, UniProt O15067).
T1 construct: endogenous in cells; host or cells: HL-60 (ATCC CCL-240)
T1 sequence (O15067 1-1338): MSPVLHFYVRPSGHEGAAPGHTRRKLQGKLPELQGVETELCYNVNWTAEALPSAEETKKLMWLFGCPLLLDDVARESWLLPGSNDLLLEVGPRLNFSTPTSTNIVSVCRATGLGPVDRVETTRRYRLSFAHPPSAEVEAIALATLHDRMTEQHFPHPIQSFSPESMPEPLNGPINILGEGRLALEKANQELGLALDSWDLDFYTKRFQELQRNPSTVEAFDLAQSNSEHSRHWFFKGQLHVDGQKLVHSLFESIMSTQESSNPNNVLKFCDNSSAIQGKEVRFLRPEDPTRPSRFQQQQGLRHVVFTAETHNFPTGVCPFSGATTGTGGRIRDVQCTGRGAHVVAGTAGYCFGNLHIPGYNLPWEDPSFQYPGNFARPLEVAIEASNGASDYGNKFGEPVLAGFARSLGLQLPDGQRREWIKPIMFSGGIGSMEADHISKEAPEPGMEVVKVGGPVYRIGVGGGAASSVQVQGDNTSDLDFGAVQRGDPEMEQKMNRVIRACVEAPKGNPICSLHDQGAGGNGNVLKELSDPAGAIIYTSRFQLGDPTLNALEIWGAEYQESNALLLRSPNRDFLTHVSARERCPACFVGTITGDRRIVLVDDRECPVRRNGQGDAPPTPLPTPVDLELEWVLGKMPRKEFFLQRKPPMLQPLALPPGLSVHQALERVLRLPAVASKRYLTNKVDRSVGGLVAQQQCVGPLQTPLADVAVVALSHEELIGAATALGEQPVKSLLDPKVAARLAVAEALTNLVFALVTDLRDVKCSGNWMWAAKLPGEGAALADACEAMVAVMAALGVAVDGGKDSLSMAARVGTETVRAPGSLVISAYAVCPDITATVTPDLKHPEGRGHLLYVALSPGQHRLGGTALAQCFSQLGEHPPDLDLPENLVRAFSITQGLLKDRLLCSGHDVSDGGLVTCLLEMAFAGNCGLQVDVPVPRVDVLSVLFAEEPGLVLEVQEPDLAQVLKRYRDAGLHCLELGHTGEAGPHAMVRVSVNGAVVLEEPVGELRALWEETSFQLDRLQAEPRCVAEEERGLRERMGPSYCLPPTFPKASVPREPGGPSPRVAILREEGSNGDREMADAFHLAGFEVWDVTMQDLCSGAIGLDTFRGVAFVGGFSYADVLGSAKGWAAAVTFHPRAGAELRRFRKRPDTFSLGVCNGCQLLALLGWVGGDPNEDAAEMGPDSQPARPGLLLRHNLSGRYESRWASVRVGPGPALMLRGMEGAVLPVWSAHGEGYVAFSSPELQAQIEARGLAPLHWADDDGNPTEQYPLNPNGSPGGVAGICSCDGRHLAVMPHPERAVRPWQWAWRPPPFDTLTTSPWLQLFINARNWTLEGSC
Nature of the assay: TPP-CCR in living HL-60 cells. The assay is classed as cell-based.

The mark [1] stands for this setting: living HL-60 cells, […] °C, TMT-MS.

A word on the Hill slope: it is the slope factor of the fitted curve. In general, pEC50 refers to the EC50 on a negative log10 scale, so that one unit is a factor of ten. The compound `Cc1cnc(Nc2ccc(F)cc2Cl)nc1-c1c[nH]c(C(=O)N[C@H](CO)c2cccc(Cl)c2)c1` [ERK 11e] showed a Hill slope (TPP-CCR, living cells, PFAS) of 0.30. Under setting [1], the pEC50 was 5.93 and the “Hill slope (PFAS)” value stood at 0.30.
